Test: in vitro
Details: PAMPA, pH 7.4

Cn1c(=O)c2c(ncn2C)n(C)c1=O [CAFFEINE]
Papp at 5 h: 9.13 ×10⁻⁶ cm/s

CCN1CCCC1CNC(=O)c1cc(S(N)(=O)=O)ccc1OC (configuration not stated) [SULPIRIDE]
Papp at 5 h: 0.006 ×10⁻⁶ cm/s
